PubChem BioAssay AID2060511 (Molecular Pharmacology Branch, DTP, NCI, 2025)
“And” between values parts separate entries of the source, which are not always exact repeats. Identical values can stand only once.

Tested on: 422866-222-R5-J1-PDC spheroids with HUVEC/MSC, viability
Test: Anticancer human tumor 422866-222-R5-J1-PDC patient-derived pancreatic adenocarcinoma cell line growth inhibition [GQUAD]
Conditions: for viability, T/C: stronger effect = lower value
From the text: DNA G-quadruplex Stabilizer Agents in Combinations in Complex Spheroids
A high-throughput screen of multi-cell type tumor spheroids was designed to identify active combinations of DNA G-quadruplex stabilizer agents and targeted small molecules. Complex spheroids include a stromal component modeled by human endothelial cells (HUVEC) and fibroblasts modeled by human mesenchymal stem cells (MSCs). The concentration ranges selected for each drug and investigational agent were based upon clinically achievable concentrations if the clinical Cmax of the agent was known.
Compounds. The drugs and investigational agents: pidnarulex (CX-5461; NSC782164), APTO-253 (NSC789042), BRACO-19 (NSC847499), peposertib (NSC802822), ceralasertib (NSC780249), elimusertib (NSC800525), camonsertib (NSC841442), AZD-1390 (NSC803789), olaparib (NSC753686), talazoparib (NSC767125), ART-558 (NSC835418), sotorasib (NSC818433), MRTX-1133 (NSC836407), SN-38 (NSC673596), topotecan (NSC609699), etoposide (NSC141540), doxorubicin (NSC123127), gemcitabine (NSC613327), 5-fluorouracil (NSC19893), paclitaxel (NSC125973), vemurafenib (NSC761431), panobinostat (NSC761190), R-306465 (JNJ-16241199; NSC773264), adavosertib (NSC754352), TP-3654 (NSC805149), carboplatin (NSC241240), KSQ-4279 (NSC840948), and staurosporine (NSC755774) were obtained from the National Cancer Institute (NCI) Developmental Therapeutics Program Chemical Repository (34). The FDA-approved anticancer drug set is available from the NCI Developmental Therapeutics Program. […] The stock solutions were prepared in dimethyl sulfoxide (DMSO, Sigma-Aldrich, St. Louis, MO, cat. D2650) at 800-fold the tested concentration and stored at -70 degrees C prior to their use. All drugs and investigational agents were tested over a range starting from a high concentration at or near the clinical Cmax and decreasing in half-log increments. If the clinical Cmax for an agent had not been determined, the highest concentration tested was 10 microM.
2.3 Cell Culture. All cells were maintained in an incubator at 37 degrees C and 5% CO2 with 95% humidity. The PDC lines were cultured according to standard operating procedures established by the NCI PDMR. All PDCs were thawed and cultured in Matrigel-coated flasks prepared with a working solution of 1X Ham's F-12 nutrient mix, without supplementation (Invitrogen, cat. 11765054), 100 U/mL penicillin-streptomycin (Invitrogen, cat. 15140122), and 2.5% Matrigel (Corning Inc., cat. 354248) for the first three passages. The 857933-349-R-J2-PDC line was cultured in 6C/Colon 1B media, which includes advanced DMEM/F-12 (Thermo Fisher Scientific, cat. 12634028), 10 mM HEPES (Thermo Fisher Scientific, cat. 15630080), 1X GlutaMAX supplement (Thermo Fisher Scientific, cat. 35050061), 0.1 mg/mL primocin (InvivoGen, cat. ant-pm-2), 10% defined fetal bovine serum, heat inactivated (HyClone Laboratories Inc., cat. SH30070.03HI), 50% L-WRN conditioned media (ATCC, cat. CRL-3276), 1.25 mM N-Acetyl-L-cysteine (Sigma-Aldrich, cat. A9165), 10 mM nicotinamide (Sigma-Aldrich, cat. N0636), 1X B-27 supplement (Thermo Fisher Scientific, cat. 17504044), 1X N-2 supplement (Thermo Fisher Scientific, cat. 17502048), 10 microM Y-27632 dihydrochloride (Tocris Bioscience, cat. 1254), and 50 ng/mL human EGF recombinant protein (Thermo Fisher Scientific, cat. PHG0311). The 485176-168-R4-J1-PDC line was cultured in Panc media, which includes all 6C/Colon 1B media components plus 100 ng/mL human FGF-10 (Thermo Fisher Scientific, cat. 100-26), 500 nM SB-431542 (Selleckchem, cat. S1067), and gastrin (Tocris, cat. 3006).
[…]
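Note: spheroids exposed to compounds for seven days before reading.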
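Throughout, for viability, T/C: percent viability relative to DMSO vehicle control taken as 100%.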

## Cn1ncnc1[C@H]1c2n[nH]c(=O)c3cc(F)cc(c23)N[C@@H]1c1ccc(F)cc1
Compound 0.000999 µM
  viability, T/C: 91.3% and 88.8% and 87.1%
Compound 0.00316 µM
  viability, T/C: 107% and 96.2% and 77.8%
Compound 0.00999 µM
  viability, T/C: 96.3% and 99.6% and 107%
Compound 0.0316 µM
  viability, T/C: 91.8% and 90.4% and 88.1%
Compound 0.0999 µM
  viability, T/C: 80.6% and 91.5% and 75.3%
Compound 0.316 µM
  viability, T/C: 78.1% and 72.3% and 73.5%
Curve of compound
  IC50: > 316 nM

## C#Cc1c(F)ccc2cc(O)cc(-c3ncc4c(N5CC6CCC(C5)N6)nc(OCC56CCCN5CC(F)C6)nc4c3F)c12 (configuration not stated)
Compound 0.0316 µM
  viability, T/C: 98.8% and 99.8% and 86.7%
Compound 0.1 µM
  viability, T/C: 95.5% and 91.4% and 77.4%
Compound 0.316 µM
  viability, T/C: 94.1% and 82.6% and 77.7%
Compound 1 µM
  viability, T/C: 60.1% and 79% and 57.5%
Compound 3.16 µM
  viability, T/C: 41.3% and 43.9% and 36.5%
Compound 10 µM
  viability, T/C: 29.2% and 39.6% and 26.7%
Curve of compound
  IC50: 1770 nM and 2700 nM and 1530 nM

## CC1COCCN1c1cc(-c2ccnn2C)c2ccnc(-c3ccn[nH]3)c2n1 (configuration not stated)
Compound 0.0316 µM
  viability, T/C: 80.3% and 71.6% and 81.9%
Compound 0.1 µM
  viability, T/C: 63.1% and 61.5% and 48.7%
Compound 0.316 µM
  viability, T/C: 47.8% and 50% and 45.2%
Compound 1 µM
  viability, T/C: 45% and 40.2% and 45.6%
Compound 3.16 µM
  viability, T/C: 63.9% and 81.7% and 45%
Compound 10 µM
  viability, T/C: 81.2% and 80.8% and 88.8%

## CCc1c2c(nc3ccc(O)cc13)-c1cc3c(c(=O)n1C2)COC(=O)[C@]3(O)CC + Cc1[nH]c2ccc(F)cc2c1-c1nc2c3cccnc3c3ncccc3c2[nH]1
Curve of first compound, second compound 0.0316 µM
  IC50: 2.5 nM
Curve of first compound, second compound 0.1 µM
  IC50: 2.17 nM
Curve of first compound, second compound 0.316 µM
  IC50: < 0.999 nM
Curve of first compound, second compound 1 µM
  IC50: 1.99 nM
Curve of first compound, second compound 3.16 µM
  IC50: 1.44 nM
Curve of first compound, second compound 10 µM
  IC50: < 0.999 nM
Second compound 0.0316 µM, first compound 0.000999 µM
  viability, T/C: 61.3%
Second compound 0.0316 µM, first compound 0.00316 µM
  viability, T/C: 43.6%
Second compound 0.0316 µM, first compound 0.00999 µM
  viability, T/C: 41.5%
Second compound 0.0316 µM, first compound 0.0316 µM
  viability, T/C: 41.4%
Second compound 0.0316 µM, first compound 0.0999 µM
  viability, T/C: 36.3%
Second compound 0.0316 µM, first compound 0.316 µM
  viability, T/C: 30.3%
Second compound 0.1 µM, first compound 0.000999 µM
  viability, T/C: 60%
Second compound 0.1 µM, first compound 0.00316 µM
  viability, T/C: 44.6%
Second compound 0.1 µM, first compound 0.00999 µM
  viability, T/C: 38%
Second compound 0.1 µM, first compound 0.0316 µM
  viability, T/C: 34.3%
Second compound 0.1 µM, first compound 0.0999 µM
  viability, T/C: 38.7%
Second compound 0.1 µM, first compound 0.316 µM
  viability, T/C: 28.1%
Second compound 0.316 µM, first compound 0.000999 µM
  viability, T/C: 52.8%
Second compound 0.316 µM, first compound 0.00316 µM
  viability, T/C: 40.8%
Second compound 0.316 µM, first compound 0.00999 µM
  viability, T/C: 39.5%
Second compound 0.316 µM, first compound 0.0316 µM
  viability, T/C: 45%
Second compound 0.316 µM, first compound 0.0999 µM
  viability, T/C: 39.2%
Second compound 0.316 µM, first compound 0.316 µM
  viability, T/C: 25.9%
Second compound 1 µM, first compound 0.000999 µM
  viability, T/C: 55.8%
Second compound 1 µM, first compound 0.00316 µM
  viability, T/C: 45.6%
Second compound 1 µM, first compound 0.00999 µM
  viability, T/C: 39.9%
Second compound 1 µM, first compound 0.0316 µM
  viability, T/C: 38%
Second compound 1 µM, first compound 0.0999 µM
  viability, T/C: 38.3%
Second compound 1 µM, first compound 0.316 µM
  viability, T/C: 31.2%
Second compound 3.16 µM, first compound 0.000999 µM
  viability, T/C: 54.3%
Second compound 3.16 µM, first compound 0.00316 µM
  viability, T/C: 40.9%
Second compound 3.16 µM, first compound 0.00999 µM
  viability, T/C: 36.4%
Second compound 3.16 µM, first compound 0.0316 µM
  viability, T/C: 35.4%
Second compound 3.16 µM, first compound 0.0999 µM
  viability, T/C: 37.7%
Second compound 3.16 µM, first compound 0.316 µM
  viability, T/C: 31.6%
Second compound 10 µM, first compound 0.000999 µM
  viability, T/C: 48.8%
Second compound 10 µM, first compound 0.00316 µM
  viability, T/C: 41.5%
Second compound 10 µM, first compound 0.00999 µM
  viability, T/C: 44%
Second compound 10 µM, first compound 0.0316 µM
  viability, T/C: 40.7%
Second compound 10 µM, first compound 0.0999 µM
  viability, T/C: 34.2%
Second compound 10 µM, first compound 0.316 µM
  viability, T/C: 27.7%
